Assay: Inhibition of human CYP1B1 transfected in HEK293 cells assessed as cisplatin EC50 at 6 times IC50 by MTT assay (Rvb = 65 uM)

| EC50 | SMILES |
| --- | --- |
| 10 µM | COc1ccccc1/C=C/C(=O)c1ccc[nH]1 |
| 10 µM | O=C(/C=C/c1ccccc1Cl)c1ccc[nH]1 |

— BindingDB's records for doi:10.1016/j.bmcl.2017.07.010 (De Montfort University, 2017)
